Where two headings read alike, the source gives them in different places.
Key:
Conditions in all cases: trans-stimulation, solute 2 mM
PfCRT^3D7 = PfCRT^3D7 (Plasmodium falciparum, UniProt Q8IBZ9); experiment: cell-based; format: cell-based
How it was run: (§1)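 Oocytes (ten per treatment, ≥4 independent frogs/days) were preloaded by injecting VF-6 in 25 nL ND96 at pH 5.0, 5.5, 6.0 or 7.0, or Na^+-free choline buffer, then uptake run 1.5 h, 27.5 °C, ND96 pH 5.5 by default. Internal concentrations assumed ~400 nL oocyte volume.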

PfCRT^Dd2 = PfCRT^Dd2 (Plasmodium falciparum, UniProt Q9N623, A220S/I356T/K76T/M74I/N326S/N75E/Q271E/R371I); experiment: cell-based; format: cell-based
Chain of PfCRT^Dd2 (Q9N623 whole entry A220S/I356T/K76T/M74I/N326S/N75E/Q271E/R371I): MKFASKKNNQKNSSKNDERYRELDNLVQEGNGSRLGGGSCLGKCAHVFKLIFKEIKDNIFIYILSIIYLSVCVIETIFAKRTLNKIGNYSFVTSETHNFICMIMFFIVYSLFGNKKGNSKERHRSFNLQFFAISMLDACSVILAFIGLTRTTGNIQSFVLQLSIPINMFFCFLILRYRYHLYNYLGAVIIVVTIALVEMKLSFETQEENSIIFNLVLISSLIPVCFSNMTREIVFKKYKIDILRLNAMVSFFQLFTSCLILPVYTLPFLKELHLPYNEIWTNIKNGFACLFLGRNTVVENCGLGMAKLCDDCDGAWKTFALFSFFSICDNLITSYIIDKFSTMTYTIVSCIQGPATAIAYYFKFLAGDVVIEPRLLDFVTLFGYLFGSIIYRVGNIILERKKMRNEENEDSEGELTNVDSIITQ
How it was run: as §1

PfNT1 = target: T1, PfNT1 (Plasmodium falciparum, UniProt Q8IDM6); experiment: cell-based; format: cell-based
T1 construct: expressed in transfected cells; host or cells: Xenopus laevis oocytes (stage V-VI), cRNA-injected
T1 sequence (Q8IDM6 whole entry): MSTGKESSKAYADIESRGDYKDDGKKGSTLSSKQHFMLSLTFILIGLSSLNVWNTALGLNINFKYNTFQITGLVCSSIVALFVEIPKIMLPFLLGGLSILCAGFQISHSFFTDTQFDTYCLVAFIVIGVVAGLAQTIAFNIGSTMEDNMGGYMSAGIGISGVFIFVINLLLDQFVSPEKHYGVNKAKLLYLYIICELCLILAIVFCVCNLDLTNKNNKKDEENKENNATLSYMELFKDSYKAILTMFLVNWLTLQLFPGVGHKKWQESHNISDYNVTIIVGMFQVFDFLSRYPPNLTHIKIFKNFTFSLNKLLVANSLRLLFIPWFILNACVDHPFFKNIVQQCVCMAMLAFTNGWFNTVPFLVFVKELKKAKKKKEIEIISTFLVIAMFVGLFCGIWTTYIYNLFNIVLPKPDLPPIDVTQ
How it was run: as §1

PfCRT^Ecu1110 = PfCRT^Ecu1110 (Plasmodium falciparum, UniProt Q9N623, A220S/I356L/K76T/N326D); experiment: cell-based; format: cell-based
Chain of PfCRT^Ecu1110 (Q9N623 whole entry A220S/I356L/K76T/N326D): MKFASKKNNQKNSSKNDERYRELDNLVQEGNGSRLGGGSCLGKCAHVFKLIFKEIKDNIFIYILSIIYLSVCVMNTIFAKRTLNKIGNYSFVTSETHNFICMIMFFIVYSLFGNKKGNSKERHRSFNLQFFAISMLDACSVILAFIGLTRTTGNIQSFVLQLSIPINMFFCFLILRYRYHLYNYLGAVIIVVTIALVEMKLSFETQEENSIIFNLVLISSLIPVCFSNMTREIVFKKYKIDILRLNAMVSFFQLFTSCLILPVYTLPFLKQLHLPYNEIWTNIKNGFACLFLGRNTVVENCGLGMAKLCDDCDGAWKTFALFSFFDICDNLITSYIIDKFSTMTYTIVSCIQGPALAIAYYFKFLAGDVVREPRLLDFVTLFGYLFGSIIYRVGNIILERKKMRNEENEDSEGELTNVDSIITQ
How it was run: as §1

non-expressing oocytes = format: cell-based, Xenopus laevis
How it was run: as §1

Chain of PfCRT^3D7 (Q8IBZ9 59-398): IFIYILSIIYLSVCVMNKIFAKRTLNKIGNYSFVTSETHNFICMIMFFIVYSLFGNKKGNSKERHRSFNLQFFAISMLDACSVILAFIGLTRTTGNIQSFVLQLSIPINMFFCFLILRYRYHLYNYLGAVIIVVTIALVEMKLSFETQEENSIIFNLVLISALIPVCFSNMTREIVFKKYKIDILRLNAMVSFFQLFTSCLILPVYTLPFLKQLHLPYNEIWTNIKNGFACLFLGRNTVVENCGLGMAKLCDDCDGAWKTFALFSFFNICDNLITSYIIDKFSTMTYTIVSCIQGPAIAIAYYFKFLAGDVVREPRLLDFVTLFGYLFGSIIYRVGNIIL

DPVN [VF-6-derived peptide]
[3H]CQ transport, PfCRT3D7 (PfCRT^3D7; Experiment 1): 12.64 % PfCRTDd2 control
[3H]CQ transport, PfCRT3D7 (PfCRT^3D7; Experiment 2): 13.46 % PfCRTDd2 control
[3H]CQ transport, PfCRT3D7 (PfCRT^3D7; Experiment 3): 12.14 % PfCRTDd2 control
[3H]CQ transport, PfCRT3D7 (PfCRT^3D7; Experiment 4): 11.36 % PfCRTDd2 control
[3H]CQ transport, PfCRTDd2 (PfCRT^Dd2; Experiment 1): 100.43 % PfCRTDd2 control
[3H]CQ transport, PfCRTDd2 (PfCRT^Dd2; Experiment 2): 99.77 % PfCRTDd2 control
[3H]CQ transport, PfCRTDd2 (PfCRT^Dd2; Experiment 3): 98.92 % PfCRTDd2 control
[3H]CQ transport, PfCRTDd2 (PfCRT^Dd2; Experiment 4): 101.43 % PfCRTDd2 control
[3H]CQ transport, PfNT1 (PfNT1; Experiment 1): 3.52 % PfCRTDd2 control
[3H]CQ transport, PfNT1 (PfNT1; Experiment 2): 3.38 % PfCRTDd2 control
[3H]CQ transport, PfNT1 (PfNT1; Experiment 3): 3.26 % PfCRTDd2 control
[3H]CQ transport, PfNT1 (PfNT1; Experiment 4): 3.33 % PfCRTDd2 control
[3H]CQ transport, PfCRTEcu1110 (PfCRT^Ecu1110; Experiment 1): 32.63 % PfCRTDd2 control
[3H]CQ transport, PfCRTEcu1110 (PfCRT^Ecu1110; Experiment 2): 30.52 % PfCRTDd2 control
[3H]CQ transport, PfCRTEcu1110 (PfCRT^Ecu1110; Experiment 3): 37.36 % PfCRTDd2 control
[3H]CQ transport, PfCRTEcu1110 (PfCRT^Ecu1110; Experiment 4): 30.52 % PfCRTDd2 control
[3H]CQ transport, non-expressing oocytes (non-expressing oocytes; Experiment 1): 2.53 % PfCRTDd2 control
[3H]CQ transport, non-expressing oocytes (non-expressing oocytes; Experiment 2): 2.64 % PfCRTDd2 control
[3H]CQ transport, non-expressing oocytes (non-expressing oocytes; Experiment 3): 2.41 % PfCRTDd2 control
[3H]CQ transport, non-expressing oocytes (non-expressing oocytes; Experiment 4): 2.56 % PfCRTDd2 control

From PMC7413254 (Nature Communications, 2020)
